Experimental data: US7879370B2, “Composition of which chief ingredient is polysaccharides having an immunoregulatory function” (Merican Corporation, priority 2006, dated 2011)

Assay type: in vivo, BALB/c mice
Conditions: mouse antiallergy test, days 0 to 22; FIG. 9
Procedure: Body weight was determined with a scale on days 0, 7, 14, and 22. General symptoms were observed daily from day 0 to day 22. Blood plasma analysis was conducted by measuring the OVA-specific IgE level using plasma obtained by centrifuging blood drawn from the ophthalmic vein on days 0, 14, 18, and 22.

## O=P1(N(CCCl)CCCl)NCCCO1 (stereo not shown) [cyclophosphamide]
  change in body weights: reduction in the body weight
